Results from patent publication US8258184B1, “Use of vegetable butter-based cetyl myristoleate for treating osteoarthritis and other musculoskeletal disease conditions and injuries” (Botanoceuticals, Inc., priority 2002, dated 2012).

Key:
[1] = test system: arthritis in laboratory rats exposed to Freund's adjuvant; settings: cited from earlier work
[2] = test system: arthritis in Swiss albino mice; settings: cited from earlier work
[3] = test system: severe arthritis caused by injuries in a horse; assay: Treatment of osteoarthritis caused by injuries in a horse (Example 3, case report); assay type: in vivo; settings: 30-year-old mare, previous treatments given together
Excerpt: Joint Response was tried as a last resort.

CCCC/C=C\CCCCCCCC(=O)OCCCCCCCCCCCCCCCC [CM, cetyl myristoleate]
protection from arthritis [1]: protected | protection from arthritis [2]: protected

N[C@H]1C(O)O[C@H](CO)[C@@H](O)[C@@H]1O (some centres unmarked) [Glucosamine, glucosamine]
alleviation of discomfort by previous treatments [3]: not working nearly well enough

CS(C)(=O)=O [MSM, methylsulfonylmethane]
alleviation of discomfort by previous treatments [3]: not working nearly well enough

CCCCC1C(=O)N(c2ccccc2)N(c2ccccc2)C1=O [Butte]
alleviation of discomfort by previous treatments [3]: not working nearly well enough
